# Reference: patent US20090082443A1, “Use of fatty acid esters of glycerol combined with polylysine against gram-negative bacteria” (PURAC BIOCHEM B.V., priority 2007, published 2009)
# Key:
# [1] = system: Escherichia coli (ATCC 8739); assay: Bioscreen growth rate in brain heart infusion broth (synergy study); assay type: cell-based
# Protocol: (§1) The following cultures were used in a study: Escherichia coli (ATCC 8739), Escherichia coli serotype O157:H7 (ATCC 700728), Salmonella typhimurium (ATCC 13311) and Salmonella entiritidis (ATCC 13076). All cultures were transferred daily in screw-capped tubes containing 10 ml brain heart infusion broth. Cultures were incubated at 30° C. without agitation. Brain heart infusion broth was prepared with increasing amounts of the mono/di glyceride and polylysine. The concentration range for the caprylic (C8) mono/di glyceride was as from 0 to 0.18% in 10 0.02% steps, for the capric (C10) mono/di glyceride was as from 0 to 0.09% in 10 0.01% steps, for the lauric (C12)mono/di glyceride was as from 0 to 0.009% in 10 0.001% steps. Mono/di glycerides were combined with polylysine. The concentration range for the polylysine was as from 0 to 0.0675% in 10 0.0075% steps, resulting in 100 different media. The pH of the media was adjusted to 6.1-6.2 with 1 N HCl or 1 N NaOH. Media were prepared in 10 ml quantities and sterilized by filtration. 300 μl of each medium was transferred to a panel of a sterile Bioscreen® honeycomb 100 well plate. Well plates were inoculated with 5 μl of a culture that was grown overnight in brain heart infusion broth using a sterile 5 μl repeating dispenser. Growth rates were determined with a Bioscreen® that kinetically measures the development of turbidity by vertical photometry. The plates were incubated for 16-24 hours at 37° C., the optical density of the cultures was measured every 30 minutes at 420-580 nm using a wide band filter. The Bioscreen® measures at set time intervals the optical density of the cultures. […] The purpose of further data processing is to ascertain whether two […] act independently of each other or whether they stimulate each other in their inhibitory action (synergy) or cancel out each other inhibitory effect (antagonism). […] This implies that only the maximum specific growth rate (μmax) value and not the affinity (Ks) is affected. Therefore the specific growth rate in the presence of inhibitor can be written as: μ=μi.s/(Ks+s), where μi is the maximal specific growth rate in the presence of a inhibitor P. The relationship between μi and μmax and the concentration of the inhibitor P was describes using the Logistic Dose Response equation, which reads: μi/μmax=1/(1+(p/P0.5)^b) (Jungbauer, A. (2001). The logistic dose response function: a robust fitting function for transition phenomena in life sciences. J. Clinical Ligand Assay 24: 270-274). In this equation p represents the concentration of inhibitor P and p0.5 the concentration of P where p=0.5 μmax; μmax is the maximum specific growth rate that is the specific growth rate in the absence of inhibitor P, b is a dimensionless quantity, which determines the relationship between μi and p. Combining the Monod and Logistic Dose Response equation it can be written as: μ=μmax (s/Ks+s)/(1+(p/p0.5)^b). In batch culture where s is usually many times higher than Ks this equation reduces to μ=μmax/(1+(p/p0.5)^b). When comparing different organisms grown under the same conditions, or the same organism grown under different conditions, it is more meaningful to use relative growth rate, rather than absolute growth rates as standards of comparison. Relative growth rate (O) is the ratio of growth rate (μ) to maximum growth rate (μmax) i.e. O=μ/μmax. It can be seen that while μ and μmax have the dimensions of (time)^−1, their ratio O is dimensionless, i.e. a pure number. Similarly we can define the relative inhibitor concentration ε as p/p0.5. The reduced Monod and Logistic Dose Response equation can now be written as: O=1/(1+ε^b).
# [2] = system: Escherichia coli serotype O157:H7 (ATCC 700728); assay: as above; assay type: cell-based
# Protocol: as §1
# [3] = system: Salmonella entiritidis (ATCC 13076); assay: as above; assay type: cell-based
# Protocol: as §1
# [4] = system: Salmonella typhimurium (ATCC 13311); assay: as above; assay type: cell-based
# Protocol: as §1
# [5] = system: Salmonella Typhimurium ATCC 13311; assay: Decontamination of inoculated chicken filets, surviving counts; assay type: cell-based
# Protocol: Salmonella Typhimurium ATCC 13311 and Escherichia coli O157:H7 ATCC 700728 were grown in sterile screw capped tubes containing Brain heart infusion broth for 18-24 hours at 30° C.
# Chicken filets (150-200 g) were trimmed, vacuum packaged and stored at 4-7° C. Filets were subsequently sterilized by gamma-irradiation (average radiation dose: 12 kiloGray).
# 1 ml of an overnight culture of Salmonella Typhimurium in brain heart infusion both was diluted 1000 times with sterile 0.8% (w/v) NaCl and 0.1% (w/v) peptone. 0.5 ml of this diluted culture was transferred to one side of the filet. The inoculum was distributed by gently rubbing the entire surface of the filet. This was repeated for the other side of the filet. Inoculation was carried out at 6° C. Inoculated filets were rested for 60-120 min at 6° C. to allow attachment of the cells.
# Chicken filets were briefly dipped and completely submersed in 1 l of a solution containing the appropriate formulation and then transferred to 400 ml Bagfilter® lateral filter bags (Interscience, St Nom, France) containing 5 ml of the appropriate formulation. Bags were vacuum-sealed and incubated at 12° C. for up to 7 days until further analysis. Time zero samples were plated within 30 min after dipping.
# Surviving Salmonella Typhimurium on chicken filets were counted as follows: a sealed bag was opened and to this was added 2 times the net weight sterile dilution fluid ([…] NaCl and 0.1% (w/v) bacteriological peptone). Duplicate filets were homogenized for 1 min. in a Bagmixer® 400 paddle labblender (Interscience, St Nom, France). 50 μl of the homogenates or dilutions thereof were plated on duplicate Salmonella chromogenic agar plates (CM1007) with cefsulodin, novobiocin supplement (SR0194) (Oxoid, Basingstoke, United Kingdom) using an Eddyjet type 1.23 spiral plater (IUL Instruments, Barcelona, Spain). Plates were incubated for 24-48 hours at 30° C. and then counted. Salmonella numbers were expressed as log10 colony forming units per ml homogenate.
# The compositions of the formulations that were studied are shown in Table 2. ε-Polylysine and mono/di glycerides were dissolved in demineralised water and sterilized for 20 min at 120° C.
# [6] = system: gram-positive and -negative bacteria; conditions: Shima et al. (November 1984); cited from earlier work
# [7] = 0.120% (w/w) C8-glycerol ester alone
# [8] = 0.090% (w/w) C10-glycerol ester alone
# [9] = 0.0225% (w/w) polylysine alone, C8 part of Table 1
# [10] = 0.0225% (w/w) polylysine alone, C10 part of Table 1
substance,measurement,setting,value
glyceryl mono/di octanoate [C8-glycerol ester],Observed Relative Growth Rate,"[1]; 0.120% (w/w) C8-glycerol ester alone, broth pH 6.1-6.2, 37° C.",1.0845
same,Observed Relative Growth Rate,[2]; [7],0.9410
same,Observed Relative Growth Rate,[3]; [7],0.5220
same,Observed Relative Growth Rate,[4]; [7],0.4035
same,Salmonella Typhimurium on chicken filets,"[5]; 0.2% (w/v) alone, 12° C., 0 days",3.82 log10 colony forming units (CFU)/ml
same,Salmonella Typhimurium on chicken filets,"[5]; 0.2% (w/v) alone, 12° C., 1 day",3.81 log10 colony forming units (CFU)/ml
same,Salmonella Typhimurium on chicken filets,"[5]; 0.2% (w/v) alone, 12° C., 2 days",4.03 log10 colony forming units (CFU)/ml
same,Salmonella Typhimurium on chicken filets,"[5]; 0.2% (w/v) alone, 12° C., 5 days",6.41 log10 colony forming units (CFU)/ml
same,Salmonella Typhimurium on chicken filets,"[5]; 0.2% (w/v) alone, 12° C., 6 days",7.48 log10 colony forming units (CFU)/ml
same,Salmonella Typhimurium on chicken filets,"[5]; 0.2% (w/v) alone, 12° C., 7 days",7.39 log10 colony forming units (CFU)/ml
glyceryl mono/di decanoate [C10-glycerol ester],Observed Relative Growth Rate,[2]; [8],0.8685
same,Observed Relative Growth Rate,[3]; [8],0.8960
same,Observed Relative Growth Rate,[4]; [8],0.4613
same,Salmonella Typhimurium on chicken filets,"[5]; 0.05% (w/v) alone, 12° C., 0 days",3.72 log10 colony forming units (CFU)/ml
same,Salmonella Typhimurium on chicken filets,"[5]; 0.05% (w/v) alone, 12° C., 1 day",3.98 log10 colony forming units (CFU)/ml
same,Salmonella Typhimurium on chicken filets,"[5]; 0.05% (w/v) alone, 12° C., 2 days",4.32 log10 colony forming units (CFU)/ml
same,Salmonella Typhimurium on chicken filets,"[5]; 0.05% (w/v) alone, 12° C., 5 days",6.0 log10 colony forming units (CFU)/ml
same,Salmonella Typhimurium on chicken filets,"[5]; 0.05% (w/v) alone, 12° C., 6 days",7.62 log10 colony forming units (CFU)/ml
same,Salmonella Typhimurium on chicken filets,"[5]; 0.05% (w/v) alone, 12° C., 7 days",7.85 log10 colony forming units (CFU)/ml
ε-Polylysine,Observed Relative Growth Rate,[1]; [9],0.7570
same,Observed Relative Growth Rate,[2]; [9],0.8315
same,Observed Relative Growth Rate,[2]; [10],0.5850
same,Observed Relative Growth Rate,[3]; [9],0.9945
same,Observed Relative Growth Rate,[3]; [10],0.9600
same,Observed Relative Growth Rate,[4]; [9],0.9653
same,Observed Relative Growth Rate,[4]; [10],0.9910
same,Salmonella Typhimurium on chicken filets,"[5]; 0.1% (w/v) alone, 12° C., 0 days",3.04 log10 colony forming units (CFU)/ml
same,Salmonella Typhimurium on chicken filets,"[5]; 0.1% (w/v) alone, 12° C., 1 day",2.04 log10 colony forming units (CFU)/ml
same,Salmonella Typhimurium on chicken filets,"[5]; 0.1% (w/v) alone, 12° C., 2 days",2.15 log10 colony forming units (CFU)/ml
same,Salmonella Typhimurium on chicken filets,"[5]; 0.1% (w/v) alone, 12° C., 5 days",4.04 log10 colony forming units (CFU)/ml
same,Salmonella Typhimurium on chicken filets,"[5]; 0.1% (w/v) alone, 12° C., 6 days",4.26 log10 colony forming units (CFU)/ml
same,Salmonella Typhimurium on chicken filets,"[5]; 0.1% (w/v) alone, 12° C., 7 days",5.35 log10 colony forming units (CFU)/ml
same,killing or growth suppressing effect (in words),"[5]; individual components on chicken filets, 12° C.",reduced the cell numbers
same,reduction in numbers,"[5]; single addition, after one day of incubation",2 log10
same,concentrations effectively used against bacteria,[6],1˜8 microgram per ml
